{
  "source": "patent US5644059A",
  "about": "“1,4-dihydropyridine derivatives and methods of producing the same” (Fujirebio Inc., priority 1990, dated 1997)",
  "data": [
    {"system": "platelet aggregation", "assay": "Test for platelet aggregation-inhibiting activity of rabbit (PAF-induced aggregation in platelet rich plasma)", "type": "cell-based", "design": "dose or concentration left out as unconfirmed", "conditions": "rabbit PRP, 37°C, 10 minutes incubation, aggregation by PAF (10 μl); test compound concentration not given", "method": "2. Test for platelet aggregation-inhibiting activity of rabit\nA blood of a rabbit (Japanese white; male; 2.5-3.0 kg) was exsanguinated from a carotid of the rabbit, and nine parts of the blood were mixed with one part of a 3.8% aqueous solution of sodium citrate. The mixture was centrifuged at 1100 rpm at 20°C. for 15 minutes. The upper layer is a platelet rich plasma (PRP), and the lower layer was centrifuged at 2500 rpm at 20° C. for 10 minutes, so that a platelet poor plasma (PPP) was obtained.\n10 μl of a solution of the compound to be tested was added to 200 μl of PRP, and the mixture was subjected to incubation at 37°C. for 10 minutes. To the mixture was added 10 μl of a platelet activating factor (PAF)(10 mg/ml). The agglutination was measured by Agricometer (NKK, PAT-4A).", "units": {"Platelet Aggregation-Inhibiting Activity": "%"}, "values": [
      {"smiles": "CCOC(=O)C1(NC(=O)C2=C(C)NC(C)=C(C(=O)OC)C2c2cccc([N+](=O)[O-])c2)CCCCC1", "note": "(stereo not shown) [Example 67, ethyl 1-[N-[1,4-dihydro-2,6-dimethyl-5-methoxycarbonyl-4-(3-nitrophenyl)pyridine-3-carbonyl]amino]cyclohexanecarboxylate]", "Platelet Aggregation-Inhibiting Activity": 33.8},
      {"smiles": "CCOC(=O)C(C)(C)NC(=O)C1=C(C)NC(C)=C(C(=O)OC)C1c1cccc([N+](=O)[O-])c1", "note": "(stereo not shown) [Example 68, ethyl 2-[N-[1,4-dihydro-2,6-dimethyl-5-methoxycarbonyl-4-(3-nitrophenyl)pyridine-3-carbonyl]amino]isobutyrate]", "Platelet Aggregation-Inhibiting Activity": 34.1},
      {"smiles": "CCOC(=O)c1ccccc1NC(=O)C1=C(C)NC(C)=C(C(=O)OC)C1c1cccc([N+](=O)[O-])c1", "note": "(stereo not shown) [Example 69, ethyl 2-[N-[1,4-dihydro-2,6-dimethy1-5-methoxycarbonyl-4-(3-nitrophenyl)pyridine-3-carbonyl]amino]-benzoate]", "Platelet Aggregation-Inhibiting Activity": 23.3},
      {"smiles": "CCOC(=O)c1nccnc1NC(=O)C1=C(C)NC(C)=C(C(=O)OC)C1c1cccc([N+](=O)[O-])c1", "note": "(stereo not shown) [Example 70, ethyl 3-[N-[1,4-dihydro-2,6-dimethyl-5-methoxycarbonyl-4-(3-nitrophenyl)pyridine-3-carbonyl]amino]pyrazine-2-carboxylate]", "Platelet Aggregation-Inhibiting Activity": 27.1},
      {"smiles": "COC(=O)C1=C(C)NC(c2ccccc2)=C(C(=O)N[C@H](C(=O)OC(C)(C)C)C(C)C)C1c1cccc([N+](=O)[O-])c1", "note": "(stereo partly shown) [Example 71, t-butyl 2-[N-[1,4-dihydro-6-methyl-5-methoxycarbonyl-4-(3-nitrophenyl)-2-phenylpyridine-3-carbonyl]amino]-3-methylbutylate]", "Platelet Aggregation-Inhibiting Activity": 100},
      {"smiles": "CCOC(=O)C1=C(c2ccccc2)NC(C)=C(C(=O)NCC(=O)OC(C)(C)C)C1c1cccc([N+](=O)[O-])c1", "note": "(stereo not shown) [Example 76]", "Platelet Aggregation-Inhibiting Activity": 46.3},
      {"smiles": "COC(=O)C1=C(C)NC(C)=C(C(=O)NCC(=O)OC(C)(C)C)[C@@H]1c1cccc([N+](=O)[O-])c1", "note": "[Example 79, (+)-t-butyl (S)-[2-[N-[1,4-dihydro-2,6-dimethyl-5-methoxycarbonyl-4-(3-nitrophenyl)pyridin-3-yl]-carbonyl]amino]acetate]", "Platelet Aggregation-Inhibiting Activity": 100}
    ]}
  ]
}
